Test results published in ChEMBL document CHEMBL4385627, “Rational approaches, design strategies, structure activity relationship and mechanistic insights for therapeutic coumarin hybrids” (Bioorg Med Chem, 2019).
≈ marks a conversion by molar mass, not a printed value. Each block holds one molecule with its values, some of them ahead of it.

Legend:
[1] = molecular target: Amyloid-beta precursor protein (Homo sapiens) (UniProt P05067); test: Inhibition of amyloid beta (1 to 40) (unknown origin) aggregation at 1 uM incubated for 1 hr by thioflavin T fluorescence spectroscopic method relative to control
Rattus norvegicus [2] = test: Antiinflammatory activity in Wistar rat assessed as reduction in formalin-induced paw edema volume at 20 mg/kg, po administered 1 hr prior to formalin challenge and measured over 0 to 6 hrs post formalin challenge by plethysmography relative to control; format: functional
[3] = Growth inhibition of BHK21 cells at 100 uM incubated for 48 hrs by SRB assay relative to control; format: cell-based, Mesocricetus auratus, BHK-21; conditions: hamster, read-out: GI
[4] = Growth inhibition of BHK21 cells at 1 uM incubated for 48 hrs by SRB assay relative to control; format: cell-based, Mesocricetus auratus, BHK-21; conditions: hamster, read-out: GI
[5] = Growth inhibition of BHK21 cells at 10 uM incubated for 48 hrs by SRB assay relative to control; format: cell-based, Mesocricetus auratus, BHK-21; conditions: hamster, read-out: GI
[6] = Growth inhibition of BHK21 cells at 0.1 uM incubated for 48 hrs by SRB assay relative to control; format: cell-based, Mesocricetus auratus, BHK-21; conditions: hamster, read-out: GI
[7] = Antioxidant activity assessed as ABTS radical cation scavenging ability
MDA-MB-231 = test: Cytotoxicity against human MDA-MB-231 cells incubated for 24 hrs by MTT assay; format: functional, cell-based; conditions: MDA-MB-231, 24 h
A549 = test: Cytotoxicity against human A549 cells incubated for 24 hrs by MTT assay; format: functional, cell-based; conditions: A549, 24 h
Staphylococcus aureus [8] = test: Antimicrobial activity against Staphylococcus aureus incubated for 16 hrs by agar-well diffusion method; format: functional
[9] = Inhibition of bovine kidney ALR1 using sodium D-glucoronic acid as substrate preincubated for 5 mins followed by NADPH addition and measured after 10 mins by spectrophotometric analysis; set-up: species or system Bos taurus
[10] = Inhibition of calf ALR2 using DL-glyceraldehyde as substrate preincubated for 5 mins followed by NADPH addition and measured after 10 mins by spectrophotometric analysis; set-up: species or system Bos taurus
Leishmania major [11] = test: Antileishmanial activity against Leishmania major at 10 uM incubated for 72 hrs by MTT assay relative to control; format: functional
Leishmania major [12] = test: Antileishmanial activity against Leishmania major at 100 uM incubated for 72 hrs by MTT assay relative to control; format: functional
Leishmania major [13] = test: Antileishmanial activity against Leishmania major at 1 uM incubated for 72 hrs by MTT assay relative to control; format: functional
Leishmania major [14] = test: Antileishmanial activity against Leishmania major at 0.1 uM incubated for 72 hrs by MTT assay relative to control; format: functional
Pseudomonas aeruginosa = test: Antibacterial activity against Pseudomonas aeruginosa MTCC 1688 by agar dilution method; format: functional
Staphylococcus aureus [15] = test: Antibacterial activity against Staphylococcus aureus MTCC 96 by agar dilution method; format: functional
Escherichia coli = test: Antibacterial activity against Escherichia coli MTCC 443 by agar dilution method; format: functional
Candida albicans = test: Antifungal activity against Candida albicans MTCC 227 by agar dilution method; format: functional
Aspergillus clavatus = test: Antifungal activity against Aspergillus clavatus MTCC 1323 by agar dilution method; format: functional
Aspergillus niger = test: Antifungal activity against Aspergillus niger MTCC 282 by agar dilution method; format: functional
[16] = Inhibition of calf intestinal alkaline phosphatase using p-nitrophenyl phosphate as substrate preincubated for 10 mins followed by substrate addition and measured after 30 mins by spectrometry based assay; set-up: species or system Bos taurus
Alpha glucosidase = Alpha glucosidase (Homo sapiens, UniProt O43451+P10253+P14410+Q2M2H8); test: Inhibition of alpha-glucosidase (unknown origin) using p-NPG as substrate preincubated for 5 mins followed by substrate addition and measured after 30 mins by spectrophotometric analysis; format: protein assay
[17] = Inhibition of rat intestinal maltase-glucoamylase using p-nitrophenyl alpha-D-glucoside as substrate preincubated for 5 mins followed by substrate addition and measured after 30 mins by spectrophotometric analysis
Cholinesterase = Cholinesterase (Homo sapiens, UniProt P06276); test: Inhibition of human plasma BuChE using butyrylthiocholine iodide as substrate preincubated for 5 mins followed by substrate addition and measured at 2 mins interval by Ellman's method
Acetylcholinesterase = Acetylcholinesterase (Homo sapiens, UniProt P22303); test: Inhibition of human recombinant AchE using acetylthiocholine iodide as substrate preincubated for 5 mins followed by substrate addition and measured at 2 mins interval by Ellman's method
Urease = Urease (Canavalia ensiformis, UniProt P07374); test: Inhibition of jack bean urease incubated for 30 mins by indophenol method
[18] = Inhibition of Saccharomyces cerevisiae alpha-glucosidase using p-nitrophenyl-alpha-D-glucopyranoside as substrate preincubated for 10 mins followed by substrate addition and measured after 30 mins by spectrophotometric analysis
HOP-92 = test: Growth inhibition of human HOP92 cells at 10 uM after 48 hrs by SRB assay relative to control; format: functional; conditions: HOP-92, 48 h, read-out: GI
[19] = Antioxidant activity assessed as superoxide anion radical scavenging activity by cyclic voltammetric analysis; format: functional
Lactobacillus jensenii = test: Inhibition of Lactobacillus jensenii ATCC 25258 assessed as reduction in number of cells by measuring turbidity after 24 hrs; format: organism-based; conditions: ATCC 25258, 24 h
Trichomonas vaginalis = test: Trichomonacidal against metronidazole-susceptible Trichomonas vaginalis after 48 hrs by trypan blue exclusion assay; format: functional, organism-based
HeLa = test: Cytotoxicity against human HeLa cells after 24 hrs by MTT assay; format: cell-based
Spermatozoa = test: Spermicidal activity against human spermatozoa shaken for 10 secs by phase contrast microscopy; format: functional, cell-based
MDA-MB-435 = test: Growth inhibition of human MDA-MB-435 cells by SRB assay; format: functional
Rattus norvegicus [20] = test: Antitumor activity against NMU challenged Sprague-Dawley rat assessed as tumor volume at 5 mg/kg, po administered once per day for 6 weeks via gavage followed by NMU post challenge for 2 weeks (reference value: 4.8 +/- 0.14 mm3); format: functional
MCF7 = test: Growth inhibition of human MCF7 cells by SRB assay; format: functional
Vero = test: Cytotoxicity against African green monkey Vero cells after 48 hrs by MTT assay; format: cell-based; conditions: Chlorocebus sabaeus
A498 = test: Growth inhibition of human A498 cells at 10 uM after 48 hrs by SRB assay relative to control; format: functional; conditions: A498, 48 h, read-out: GI
NCI-H157 [21] = test: Growth inhibition of human NCI-H157 cells at 0.1 uM incubated for 48 hrs by SRB assay relative to control; format: functional; conditions: NCI-H157, 48 h, read-out: GI
NCI-H157 [22] = test: Growth inhibition of human NCI-H157 cells at 10 uM incubated for 48 hrs by SRB assay relative to control; format: functional; conditions: NCI-H157, 48 h, read-out: GI
NCI-H157 [23] = test: Growth inhibition of human NCI-H157 cells at 1 uM incubated for 48 hrs by SRB assay relative to control; format: functional; conditions: NCI-H157, 48 h, read-out: GI
NCI-H157 [24] = test: Growth inhibition of human NCI-H157 cells at 100 uM incubated for 48 hrs by SRB assay relative to control; format: functional; conditions: NCI-H157, 48 h, read-out: GI

Urease, sequence (P07374 whole entry): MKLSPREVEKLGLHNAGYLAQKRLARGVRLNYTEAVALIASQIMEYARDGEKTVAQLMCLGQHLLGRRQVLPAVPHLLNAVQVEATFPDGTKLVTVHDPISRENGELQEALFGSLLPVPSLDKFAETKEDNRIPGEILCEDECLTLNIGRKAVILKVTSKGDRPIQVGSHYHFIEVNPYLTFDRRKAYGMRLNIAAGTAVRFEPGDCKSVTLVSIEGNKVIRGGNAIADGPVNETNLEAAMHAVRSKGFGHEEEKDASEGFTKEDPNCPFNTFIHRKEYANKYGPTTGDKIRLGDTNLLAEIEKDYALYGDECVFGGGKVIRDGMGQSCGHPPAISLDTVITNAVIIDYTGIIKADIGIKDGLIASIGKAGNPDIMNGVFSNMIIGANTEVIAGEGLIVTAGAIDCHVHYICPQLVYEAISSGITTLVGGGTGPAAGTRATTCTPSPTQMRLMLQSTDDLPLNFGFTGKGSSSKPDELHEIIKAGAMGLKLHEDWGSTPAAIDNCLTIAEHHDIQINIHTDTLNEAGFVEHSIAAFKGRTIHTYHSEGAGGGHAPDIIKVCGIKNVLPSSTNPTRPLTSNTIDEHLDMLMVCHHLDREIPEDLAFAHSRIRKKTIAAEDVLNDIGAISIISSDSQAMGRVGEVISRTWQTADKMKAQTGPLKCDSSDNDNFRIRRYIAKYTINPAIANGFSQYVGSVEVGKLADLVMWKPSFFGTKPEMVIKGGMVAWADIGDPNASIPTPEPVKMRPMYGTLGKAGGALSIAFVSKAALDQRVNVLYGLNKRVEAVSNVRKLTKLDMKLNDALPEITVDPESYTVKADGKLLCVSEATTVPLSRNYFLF
Acetylcholinesterase, sequence (P22303 whole entry): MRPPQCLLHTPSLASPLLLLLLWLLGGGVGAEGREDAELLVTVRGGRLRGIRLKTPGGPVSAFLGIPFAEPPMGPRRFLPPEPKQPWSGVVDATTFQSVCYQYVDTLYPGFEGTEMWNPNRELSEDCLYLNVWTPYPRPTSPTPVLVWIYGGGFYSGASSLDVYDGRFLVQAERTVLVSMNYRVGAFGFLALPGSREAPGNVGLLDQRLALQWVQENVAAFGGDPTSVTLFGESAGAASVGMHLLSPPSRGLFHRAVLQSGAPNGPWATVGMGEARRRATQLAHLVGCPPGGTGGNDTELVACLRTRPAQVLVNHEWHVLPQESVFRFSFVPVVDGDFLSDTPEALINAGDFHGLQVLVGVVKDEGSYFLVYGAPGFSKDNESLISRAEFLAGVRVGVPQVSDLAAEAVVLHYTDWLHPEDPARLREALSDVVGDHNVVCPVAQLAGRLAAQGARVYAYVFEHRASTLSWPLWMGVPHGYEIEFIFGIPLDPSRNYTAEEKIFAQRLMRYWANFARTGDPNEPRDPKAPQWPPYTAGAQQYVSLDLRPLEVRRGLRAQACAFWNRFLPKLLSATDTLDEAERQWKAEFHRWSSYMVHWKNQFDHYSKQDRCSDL
Amyloid-beta precursor protein (Homo sapiens), sequence (P05067 whole entry): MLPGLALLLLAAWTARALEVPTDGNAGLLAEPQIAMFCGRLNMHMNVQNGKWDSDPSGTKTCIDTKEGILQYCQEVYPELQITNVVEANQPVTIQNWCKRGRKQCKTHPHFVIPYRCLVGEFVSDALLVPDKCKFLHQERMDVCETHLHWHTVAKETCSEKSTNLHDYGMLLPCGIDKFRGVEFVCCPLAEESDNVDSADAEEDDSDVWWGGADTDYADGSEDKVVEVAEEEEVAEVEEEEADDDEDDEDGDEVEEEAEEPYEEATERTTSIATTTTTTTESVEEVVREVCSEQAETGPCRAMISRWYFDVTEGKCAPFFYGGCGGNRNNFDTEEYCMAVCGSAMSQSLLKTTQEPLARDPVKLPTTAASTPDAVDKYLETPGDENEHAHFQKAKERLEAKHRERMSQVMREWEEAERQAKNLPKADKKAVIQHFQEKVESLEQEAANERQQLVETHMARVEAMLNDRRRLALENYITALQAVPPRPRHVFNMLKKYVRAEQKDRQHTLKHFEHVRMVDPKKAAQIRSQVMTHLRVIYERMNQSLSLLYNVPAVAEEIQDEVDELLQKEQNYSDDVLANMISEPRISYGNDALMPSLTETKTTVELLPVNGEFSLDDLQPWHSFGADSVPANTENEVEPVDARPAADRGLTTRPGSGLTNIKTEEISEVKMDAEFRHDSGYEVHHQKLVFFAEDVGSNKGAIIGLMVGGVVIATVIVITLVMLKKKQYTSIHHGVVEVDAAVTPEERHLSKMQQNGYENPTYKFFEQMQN
Cholinesterase, sequence (P06276 whole entry): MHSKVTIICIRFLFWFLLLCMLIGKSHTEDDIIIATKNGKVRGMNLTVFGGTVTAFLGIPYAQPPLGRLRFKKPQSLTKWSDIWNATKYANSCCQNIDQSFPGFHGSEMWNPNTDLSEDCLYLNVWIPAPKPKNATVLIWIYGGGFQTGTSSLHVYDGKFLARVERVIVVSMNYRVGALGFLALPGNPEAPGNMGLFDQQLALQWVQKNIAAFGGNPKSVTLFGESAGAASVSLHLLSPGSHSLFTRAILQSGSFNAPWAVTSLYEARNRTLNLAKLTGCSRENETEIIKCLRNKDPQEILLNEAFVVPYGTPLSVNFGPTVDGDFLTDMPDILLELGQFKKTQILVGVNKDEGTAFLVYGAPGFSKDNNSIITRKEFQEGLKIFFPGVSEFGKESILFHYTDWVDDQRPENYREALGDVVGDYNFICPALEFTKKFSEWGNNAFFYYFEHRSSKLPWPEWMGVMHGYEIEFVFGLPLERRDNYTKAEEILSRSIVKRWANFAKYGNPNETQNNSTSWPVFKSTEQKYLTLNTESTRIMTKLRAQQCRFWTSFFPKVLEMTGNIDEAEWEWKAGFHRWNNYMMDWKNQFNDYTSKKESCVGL

inhibition [1]: 82%
SMILES: O=C(Cc1cc(=O)oc2cc(O)ccc12)NCCCCCCCCNc1c2c(nc3ccccc13)CCCC2

SMILES: O=c1oc2ccc(Cl)cc2cc1-c1nc2ccccc2[nH]1
inhibition in vivo at 20 mg/kg (Rattus norvegicus [2]): 46.8%

SMILES: Cc1cc(C)cc(-n2c(-c3cc4ccccc4oc3=O)cs/c2=N/NC(=O)c2cc3ccccc3oc2=O)c1
inhibition at 48 h, 100 µM [3]: 66.8% | inhibition at 48 h, 1 µM [4]: 59.4% | inhibition at 48 h, 10 µM [5]: 64.2% | inhibition at 48 h, 0.1 µM [6]: 55.5%

IC50 [7]: 18600 nM
SMILES: CCOC(=O)C(C)(C)Oc1ccc(C(=O)c2cc3cc([N+](=O)[O-])ccc3oc2=O)cc1

SMILES: O=c1oc2ccccc2cc1-c1cc(-c2ccc(Cl)cc2)nc(Cc2ccc(F)cc2)n1
IC50 (MDA-MB-231): 16500 nM | IC50 (A549): 2150 nM

MIC (Staphylococcus aureus [8]): 2.5 µg/mL (≈ 4.89 µM)
SMILES: CC(C)(C)NC(=O)c1c(-c2ccccc2)nc(SCc2cc(=O)oc3ccc4ccccc4c23)[nH]c1=O

IC50 [9]: 1710 nM | IC50 [10]: 110 nM
SMILES: C/C(=N\Nc1nc(-c2cc3ccccc3oc2=O)cs1)c1ccc(Br)cc1

SMILES: O=c1oc2ccc(Br)cc2cc1-c1nc2ccccc2[nH]1
inhibition in vivo at 20 mg/kg (Rattus norvegicus [2]): 45.5%

SMILES: C[C@@H]1[C@H](O)[C@@H](C)/C=C/C=C/C=C/C=C/C=C/C=C/C=C/[C@H](O[C@@H]2O[C@H](C)[C@@H](O)[C@H](N)[C@@H]2O)C[C@@H]2O[C@](O)(C[C@@H](O)C[C@@H](O)[C@H](O)CC[C@@H](O)C[C@@H](O)CC(=O)O[C@H]1C)C[C@H](O)[C@H]2C(=O)O [AMPHOTERICIN B]
inhibition at 10 µM (Leishmania major [11]): 76.3% | inhibition at 100 µM (Leishmania major [12]): 79.8% | inhibition at 1 µM (Leishmania major [13]): 74.8% | inhibition at 0.1 µM (Leishmania major [14]): 69.9%

SMILES: O=C(O)c1cn(C2CC2)c2cc(N3CCNCC3)c(F)cc2c1=O [CIPROFLOXACIN]
MIC (Staphylococcus aureus [8]): 10 µg/mL (≈ 30.2 µM)

MIC (Pseudomonas aeruginosa): 100 µg/mL (≈ 268 µM) | MIC (Staphylococcus aureus [15]): 50 µg/mL (≈ 134 µM) | MIC (Escherichia coli): 50 µg/mL (≈ 134 µM) | MIC (Candida albicans): 100 µg/mL (≈ 268 µM) | MIC (Aspergillus clavatus): 100 µg/mL (≈ 268 µM) | MIC (Aspergillus niger): 100 µg/mL (≈ 268 µM)
SMILES: C/C(=N\NC(=S)Nc1ccc(F)cc1F)c1cc2ccccc2oc1=O

SMILES: Cc1cccc(-n2c(-c3cc4ccccc4oc3=O)cs/c2=N/NC(=O)c2cc3ccccc3oc2=O)c1C
inhibition at 10 µM (Leishmania major [11]): 66.2% | inhibition at 100 µM (Leishmania major [12]): 70.4% | inhibition at 1 µM (Leishmania major [13]): 60.7% | inhibition at 0.1 µM (Leishmania major [14]): 53.9%

IC50 [16]: 1380 nM
SMILES: Cc1ccc(-n2c(-c3cc4ccccc4oc3=O)cs/c2=N/NC(=O)c2cc3ccccc3oc2=O)c(C)c1

IC50 (Alpha glucosidase): 110 nM | IC50 [17]: 70 nM
SMILES: Cc1ccc(N2C(=O)/C(=C/c3ccc(F)cc3)S/C2=N\NC(=O)c2cc3ccccc3oc2=O)cc1

SMILES: O=C(Cc1cc(=O)oc2cc(O)ccc12)NCCCCCCCNc1c2c(nc3ccccc13)CCCC2
IC50 (Cholinesterase): 63 to 63.5 nM

SMILES: O=C(Cc1cc(=O)oc2cc(O)ccc12)NCCCNCCNCCCNc1c2c(nc3ccccc13)CCCC2
IC50 (Acetylcholinesterase): 38 nM

SMILES: NC(=S)N1N=C(c2cc3ccccc3oc2=O)CC1c1ccccc1 (stereo not given)
IC50 (Urease): 358 nM

SMILES: COc1ccc(-c2cc(-c3cc4ccccc4oc3=O)nc(Cc3ccc(F)cc3)n2)cc1
IC50 (A549): 16100 nM

IC50 [18]: 6240 nM
SMILES: O=C(N/N=C/c1cc(Cl)cc(Cl)c1O)c1nc(-c2cc3ccccc3oc2=O)cs1

IC50 [9]: 34700 nM | IC50 [10]: 160 nM
SMILES: C/C(=N\Nc1nc(-c2cc3ccccc3oc2=O)cs1)c1ccccc1Br

SMILES: Cc1cc(=O)oc2cc(Oc3nc(-c4ccc(B(O)O)s4)cn4c(-c5ccc(B(O)O)s5)cnc34)ccc12
inhibition of growth at 10 µM (HOP-92): 92.3%

IC50 [19]: 64000 nM
SMILES: O=C(OCc1cc(=O)oc2c(O)c(O)ccc12)c1cc(O)c(O)c(O)c1

IC50 (Lactobacillus jensenii): > 1000 µg/mL
SMILES: O=C(c1ccc(O)cc1)C(c1c(O)c2ccccc2oc1=O)N1CCCCC1 (stereo not given)
IC50 (Trichomonas vaginalis): 29400 nM | IC50 (HeLa): 234 µg/mL (≈ 617 µM) | IC50 (Spermatozoa): 500000 nM

GI50 (MDA-MB-435): 75.3 µg/mL (≈ 187 µM) | GI50 (MCF7): < 10 µg/mL
SMILES: O=C(/C=C/c1ccc(OCCN2CCCCC2)cc1)c1cc2ccccc2oc1=O
Activity (Rattus norvegicus [20]): 3.3 mm3

IC50 [9]: 2940 nM | IC50 [10]: 120 nM
SMILES: C/C(=N\Nc1nc(-c2cc3ccccc3oc2=O)cs1)c1ccccc1

IC50 [7]: 8510 nM
SMILES: CCOC(=O)C(C)(C)Oc1ccc(C(=O)c2cc3cc(C)ccc3oc2=O)cc1

SMILES: O=Cc1c(-c2cc3cc(Br)ccc3oc2=O)[nH]c2ccccc12
IC50 (Vero): 100000 nM

SMILES: Cc1cc(=O)oc2cc(Oc3nc(-c4ccc(B(O)O)cc4)cn4c(-c5ccc(B(O)O)cc5)cnc34)ccc12
inhibition of growth at 10 µM (A498): 90.1%

IC50 [17]: 380 nM
SMILES: COc1ccccc1N1C(=O)/C(=C/c2ccc(F)cc2)S/C1=N\NC(=O)c1cc2ccccc2oc1=O

IC50 [18]: 8230 nM
SMILES: O=C(N/N=C/c1cc(Cl)ccc1O)c1nc(-c2cc3ccccc3oc2=O)cs1

SMILES: Cc1ccc(-n2c(-c3cc4ccccc4oc3=O)cs/c2=N/NC(=O)c2cc3ccccc3oc2=O)cc1C
inhibition of growth at 0.1 µM (NCI-H157 [21]): 45.5% | inhibition of growth at 10 µM (NCI-H157 [22]): 57.3% | inhibition of growth at 1 µM (NCI-H157 [23]): 53.8% | inhibition of growth at 100 µM (NCI-H157 [24]): 65%

SMILES: O=C(Nc1nc2ccccc2[nH]1)c1cc2ccccc2oc1=O
inhibition in vivo at 20 mg/kg (Rattus norvegicus [2]): 42.9%

SMILES: Nc1cc(Cl)ccc1/C(=N/Nc1nc(-c2cc3ccccc3oc2=O)cs1)c1ccccc1
IC50 [10]: 459 nM
